PMC2248166, “Quantitative peptide binding motifs for 19 human and mouse MHC class I molecules derived using positional scanning combinatorial peptide libraries” (Immunome Research, 2008)
Where a SMILES comes first, the peptide text is derived from it.

Assays:
Test in all cases: biochemical
Format in all cases: binding
HLA B*0801 = HLA B*0801 (Homo sapiens, UniProt P01889, A93T/A95T/D138N/E176V/E187T/K202T/Q94N/R180D/S35A/V36M/Y33D/Y91F)
HLA B*1501 = HLA B*1501 (Homo sapiens, UniProt P01889, A329T/A93T/A95T/C349S/D201E/D98Y/E187L/E204Q/E69M/E70A/K202T/N87E/Q94N/R155S/R180W/S121R/S35A/S48A/V306I/V36M/Y140S/Y91S)
HLA A*3001 = HLA A*3001 (Homo sapiens, UniProt P04439, D140H/D185E/E176W/F33S/G80R/H175R/K168Q/R138E/R41S)
HLA B*1503 = HLA B*1503 (Homo sapiens, UniProt P01889, A329T/A93T/A95T/C349S/D201E/D98Y/E187L/E204Q/K202T/N87E/Q94N/R155S/R180L/S121R/S35A/V306I/V36M/Y140S/Y91S)

Sequence of HLA A*3001 (P04439 25-365 limits assumed, stated change not applied): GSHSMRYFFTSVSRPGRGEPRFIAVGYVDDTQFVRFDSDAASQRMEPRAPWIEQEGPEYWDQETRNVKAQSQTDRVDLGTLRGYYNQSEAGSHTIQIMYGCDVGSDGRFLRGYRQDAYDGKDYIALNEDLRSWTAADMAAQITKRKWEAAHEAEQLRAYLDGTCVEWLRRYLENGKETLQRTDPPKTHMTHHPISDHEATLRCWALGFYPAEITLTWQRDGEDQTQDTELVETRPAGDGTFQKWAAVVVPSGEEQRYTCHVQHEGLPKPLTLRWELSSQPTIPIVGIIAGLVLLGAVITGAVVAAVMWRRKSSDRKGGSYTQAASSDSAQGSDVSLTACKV

Row | Structure (SMILES) | IC50 (HLA B*0801) | IC50 (HLA B*1501) | IC50 (HLA A*3001) | IC50 (HLA B*1503)
1 | CC(C)[C@H](NC(=O)[C@H](C)NC(=O)[C@H](CO)NC(=O)[C@H](Cc1ccc(O)cc1)NC(=O)[C@H](CCCNC(=N)N)NC(=O)CNC(=O)[C@H](Cc1ccc(O)cc1)NC(=O)[C@@H](NC(=O)[C@@H](N)CCCCN)C(C)C)C(=O)O [3102.0117] (H-KVYGRYSAV-OH) | 4.2 nM | 95 nM |  | 
2 | CC(C)C[C@H](NC(=O)[C@H](C)NC(=O)[C@H](CCCNC(=N)N)NC(=O)[C@H](Cc1c[nH]cn1)NC(=O)[C@H](CC(C)C)NC(=O)[C@H](Cc1c[nH]c2ccccc12)NC(=O)[C@H](CCCNC(=N)N)NC(=O)[C@@H](NC(=O)[C@@H](N)Cc1ccccc1)C(C)C)C(=O)O [3102.0526] (H-FVRWLHRAL-OH) | 1 nM | 16 nM |  | 
3 | CC[C@H](C)[C@H](NC(=O)[C@H](CO)NC(=O)[C@H](CCCNC(=N)N)NC(=O)[C@H](CO)NC(=O)[C@H](CCSC)NC(=O)[C@H](CO)NC(=O)[C@H](CCCNC(=N)N)NC(=O)[C@@H](NC(=O)[C@@H](N)CO)[C@@H](C)CC)C(=O)O [3102.0527] (H-SIRSMSRSI-OH) | 77 nM | 363 nM |  | 
4 | CC[C@H](C)[C@H](NC(=O)[C@H](CCCCN)NC(=O)[C@H](CC(N)=O)NC(=O)[C@H](CCCCN)NC(=O)[C@@H](NC(=O)[C@@H](N)Cc1ccccc1)[C@@H](C)CC)C(=O)N[C@@H](Cc1c[nH]cn1)C(=O)N[C@@H](CC(C)C)C(=O)N[C@@H](CC(C)C)C(=O)O [3102.0551] (H-FIKNKIHLL-OH) | 0.82 nM | 98 nM |  | 
5 | CSCC[C@H](N)C(=O)N[C@@H](Cc1ccccc1)C(=O)N[C@@H](CCCNC(=N)N)C(=O)N[C@@H](CCCCN)C(=O)N[C@@H](CCCCN)C(=O)N[C@@H](CCCNC(=N)N)C(=O)N[C@@H](CC(C)C)C(=O)N[C@@H](Cc1ccccc1)C(=O)N[C@@H](CC(C)C)C(=O)O [3102.0580] (H-MFRKKRLFL-OH) | 1.1 nM |  | 10 nM | 
6 | CC[C@H](C)[C@H](NC(=O)[C@@H](N)CC(C)C)C(=O)N[C@@H](CCCNC(=N)N)C(=O)N[C@@H](CC(N)=O)C(=O)N[C@@H](CCCCN)C(=O)N[C@@H](CCCNC(=N)N)C(=O)N[C@@H](CC(C)C)C(=O)N[C@@H](CO)C(=O)N[C@@H](CC(C)C)C(=O)O [3102.0638] (H-LIRNKRLSL-OH) | 0.78 nM | 455 nM |  | 
7 | CC[C@H](C)[C@H](NC(=O)[C@@H](N)Cc1ccccc1)C(=O)N[C@@H](Cc1ccccc1)C(=O)N[C@@H](CC(C)C)C(=O)N[C@@H](CCCCN)C(=O)N[C@@H](CCCCN)C(=O)N[C@@H](CC(N)=O)C(=O)N[C@@H](CCC(=O)O)C(=O)N[C@@H](CC(C)C)C(=O)O [3102.0673] (H-FIFLKKNEL-OH) | 97 nM |  | 44 nM | 
8 | CC[C@H](C)[C@H](NC(=O)[C@@H](N)CC(C)C)C(=O)NCC(=O)N[C@@H](C)C(=O)N[C@@H](CCCNC(=N)N)C(=O)N[C@@H](CCCNC(=N)N)C(=O)N[C@H](C(=O)N[C@@H](CO)C(=O)N[C@@H](Cc1ccccc1)C(=O)O)[C@@H](C)O [3102.0774] (H-LIGARRTSF-OH) | 1.5 nM | 40 nM |  | 
9 | CC[C@H](C)[C@H](NC(=O)[C@H](CC(N)=O)NC(=O)[C@@H](N)CCCNC(=N)N)C(=O)N[C@@H](C)C(=O)N[C@@H](CCCNC(=N)N)C(=O)N[C@@H](Cc1c[nH]cn1)C(=O)N[C@@H](CC(C)C)C(=O)N[C@@H](C)C(=O)N[C@@H](CC(C)C)C(=O)O [3102.0780] (H-RNIARHLAL-OH) | 3.2 nM |  |  | 
10 | CC[C@H](C)[C@H](NC(=O)[C@@H](N)Cc1ccccc1)C(=O)N[C@@H](CCCCN)C(=O)N[C@@H](CCC(N)=O)C(=O)NCC(=O)N[C@@H](Cc1ccccc1)C(=O)N[C@@H](CC(N)=O)C(=O)N[C@@H](CC(N)=O)C(=O)N[C@@H](CC(C)C)C(=O)O [3102.0781] (H-FIKQGFNNL-OH) | 0.91 nM |  |  | 
11 | CC[C@H](C)[C@H](NC(=O)[C@H](CC(C)C)NC(=O)[C@@H](N)CC(N)=O)C(=O)N[C@H](C(=O)N[C@@H](Cc1c[nH]cn1)C(=O)N[C@H](C(=O)N[C@@H](C)C(=O)N[C@@H](C)C(=O)N[C@@H](CC(C)C)C(=O)O)[C@@H](C)O)[C@@H](C)CC [3102.0785] (H-NLIIHTAAL-OH) | 1.6 nM |  |  | 
12 | CSCC[C@H](NC(=O)[C@H](CCCNC(=N)N)NC(=O)[C@H](CCCCN)NC(=O)[C@H](CO)NC(=O)[C@H](CCCCN)NC(=O)[C@H](C)NC(=O)[C@@H](N)Cc1ccc(O)cc1)C(=O)N[C@@H](C)C(=O)N[C@@H](CCC(=O)O)C(=O)O [3102.0786] (H-YAKSKRMAE-OH) | 31 nM |  |  | 
13 | CC[C@H](C)[C@H](NC(=O)[C@@H](N)CCCNC(=N)N)C(=O)N[C@@H](CC(C)C)C(=O)N[C@@H](Cc1ccccc1)C(=O)N[C@@H](CCCNC(=N)N)C(=O)N[C@@H](CCCCN)C(=O)N1CCC[C@H]1C(=O)N[C@@H](CO)C(=O)N[C@@H](CC(C)C)C(=O)O [3102.0787] (H-RILFRKPSL-OH) | 32 nM |  |  | 
14 | CC[C@H](C)[C@H](NC(=O)[C@H](Cc1ccccc1)NC(=O)[C@H](CC(C)C)NC(=O)[C@@H](NC(=O)[C@H](CC(C)C)NC(=O)[C@H](Cc1ccccc1)NC(=O)[C@@H]1CCCN1C(=O)[C@@H](NC(=O)[C@@H](N)CC(C)C)[C@@H](C)CC)[C@@H](C)CC)C(=O)O [3102.0791] (H-LIPFLILFI-OH) | 50 nM |  |  | 
15 | CC[C@H](C)[C@H](NC(=O)[C@H](C)N)C(=O)N[C@@H](CC(N)=O)C(=O)N[C@@H](CC(N)=O)C(=O)N[C@@H](CCCNC(=N)N)C(=O)N[C@H](C(=O)N[C@@H](CS)C(=O)N[C@H](C(=O)N[C@@H](CCSC)C(=O)O)C(C)C)[C@@H](C)CC [3102.0865] (H-AINNRICVM-OH) | 424 nM | 51 nM |  | 
16 | CC[C@H](C)[C@H](NC(=O)[C@H](Cc1c[nH]cn1)NC(=O)[C@@H](NC(=O)[C@@H](N)CCSC)C(C)C)C(=O)N[C@@H](Cc1ccc(O)cc1)C(=O)N[C@@H](Cc1ccccc1)C(=O)N[C@H](C(=O)N[C@@H](CO)C(=O)N[C@@H](CC(C)C)C(=O)O)C(C)C [3102.0878] (H-MVHIYFVSL-OH) | 1.4 nM |  |  | 
17 | CC[C@H](C)[C@H](NC(=O)[C@H](Cc1c[nH]cn1)NC(=O)[C@H](CC(N)=O)NC(=O)[C@H](CCCCN)NC(=O)[C@H](CCCNC(=N)N)NC(=O)[C@H](Cc1ccccc1)NC(=O)[C@H](CCCNC(=N)N)NC(=O)[C@@H](NC(=O)[C@@H](N)Cc1ccc(O)cc1)[C@@H](C)CC)C(=O)O [3102.0888] (H-YIRFRKNHI-OH) | 1.4 nM |  |  | 
18 | CC[C@H](C)[C@H](NC(=O)[C@@H](N)Cc1ccccc1)C(=O)N[C@@H](C)C(=O)N[C@@H](CCCCN)C(=O)N[C@@H](Cc1c[nH]cn1)C(=O)N[C@@H](Cc1ccccc1)C(=O)N[C@@H](CC(C)C)C(=O)N[C@@H](CCC(=O)O)C(=O)N[C@@H](CC(C)C)C(=O)O [3102.0900] (H-FIAKHFLEL-OH) | 1.3 nM |  |  | 
19 | CC[C@H](C)[C@H](NC(=O)[C@H](Cc1ccccc1)NC(=O)[C@H](CCCCN)NC(=O)[C@@H](NC(=O)[C@@H](N)Cc1ccc(O)cc1)[C@@H](C)CC)C(=O)N[C@@H](Cc1ccccc1)C(=O)N[C@@H](CC(C)C)C(=O)N[C@@H](CCC(N)=O)C(=O)N[C@@H](CCSC)C(=O)O [3102.0918] (H-YIKFIFLQM-OH) | 8.6 nM |  |  | 
20 | CC[C@H](C)[C@H](NC(=O)[C@H](Cc1ccc(O)cc1)NC(=O)[C@H](C)NC(=O)[C@H](Cc1ccccc1)NC(=O)[C@H](Cc1ccc(O)cc1)NC(=O)[C@H](Cc1ccc(O)cc1)NC(=O)[C@H](CCCNC(=N)N)NC(=O)[C@H](CCC(=O)O)NC(=O)CN)C(=O)O [3102.0936] (H-GERYYFAYI-OH) | 6.9 nM |  |  | 
21 | CC[C@H](C)[C@H](NC(=O)[C@H](CCC(N)=O)NC(=O)[C@H](CCC(=O)O)NC(=O)[C@H](Cc1ccccc1)NC(=O)[C@H](Cc1ccc(O)cc1)NC(=O)[C@H](CC(=O)O)NC(=O)[C@H](CCCNC(=N)N)NC(=O)[C@H](CC(C)C)NC(=O)[C@@H](N)CCC(=O)O)C(=O)O [3102.0939] (H-ELRDYFEQI-OH) | 13 nM |  |  | 
22 | CC[C@H](C)[C@H](NC(=O)[C@@H](NC(=O)[C@H](CS)NC(=O)[C@@H](NC(=O)[C@H](CCCNC(=N)N)NC(=O)[C@H](CO)NC(=O)[C@H](CCCCN)NC(=O)[C@H](CO)NC(=O)[C@@H](N)CC(N)=O)[C@@H](C)CC)C(C)C)C(=O)O [3102.0966] (H-NSKSRICVI-OH) | 11 nM |  |  | 
23 | CC[C@H](C)[C@H](NC(=O)[C@H](Cc1ccccc1)NC(=O)[C@H](CCSC)NC(=O)[C@H](Cc1ccccc1)NC(=O)[C@H](CCCCN)NC(=O)[C@H](CC(N)=O)NC(=O)[C@H](CCCNC(=N)N)NC(=O)[C@@H](NC(=O)[C@@H](N)CCCNC(=N)N)[C@@H](C)CC)C(=O)O [3102.0998] (H-RIRNKFMFI-OH) | 1.6 nM |  | 0.069 nM | 
24 | N=C(N)NCCC[C@H](NC(=O)[C@H](Cc1ccc(O)cc1)NC(=O)[C@H](CCCNC(=N)N)NC(=O)[C@H](CCCNC(=N)N)NC(=O)[C@H](CO)NC(=O)[C@@H](N)CO)C(=O)N[C@@H](CS)C(=O)N[C@@H](CO)C(=O)N[C@@H](Cc1ccccc1)C(=O)O [3102.1158] (H-SSRRYRCSF-OH) | 12 nM |  |  | 
25 | CC[C@H](C)[C@H](N)C(=O)N[C@@H](CC(C)C)C(=O)N[C@@H](Cc1c[nH]cn1)C(=O)N[C@@H](Cc1c[nH]cn1)C(=O)N[C@@H](Cc1c[nH]cn1)C(=O)N[C@@H](CCCNC(=N)N)C(=O)N[C@@H](CC(N)=O)C(=O)N[C@H](C(=O)N[C@@H](Cc1ccccc1)C(=O)O)C(C)C [3102.1250] (H-ILHHHRNVF-OH) | 13 nM |  |  | 1.3 nM
26 | CSCC[C@H](NC(=O)[C@H](CC(=O)O)NC(=O)[C@@H](NC(=O)[C@H](Cc1ccccc1)NC(=O)[C@H](Cc1c[nH]cn1)NC(=O)[C@H](CCSC)NC(=O)[C@H](CO)NC(=O)[C@H](CCC(N)=O)NC(=O)[C@@H](N)Cc1ccccc1)[C@@H](C)O)C(=O)O [3102.1283] (H-FQSMHFTDM-OH) | 84 nM |  |  | 5.1 nM
